Measured values as given in US8940798B2, “Compounds useful for treating and/or preventing disease-associated bone loss” (Centre National de al Recherche Scientifique (CNRS), priority 2011, dated 2015).

Experiments:
osteoclasts (OCs) [1] = test: Bone resorption assay, CTx concentration in medium of OCs on bovine bone slices; type: cell-based, mouse
Description: FIGS. 5A-5H: Inhibition of bone resorption by an inhibitor of Rac1 activation by Dock5. (FIG. 5A) Principle of the yeast exchange assay used to identify inhibitors of Dock5 exchange activity. Wild type Rac1 is fused to LexA DNA binding domain (LexA) and its effector Kinectin (Kin) to GAL4 activation domain (GAD). Expression of Dock5-DHR2 activates Rac1, which binds to kinectin, leading to the expression of his3 and then yeast […] for histidine. Inhibitors of Dock5-DHR2 revert Rac1 activation. (FIG. 5B) Growth curves of yeasts expressing Rac1 and Kinectin with (open triangles) and without (dots) Dock5-DHR2, in medium complemented (plain lines) or not (dotted lines) with histidine. (FIG. 5C) Structure of N-(3,5-dichlorophenyl)benzensulfonamide (C21). (FIG. 5D) Western blots showing total and GTPbound Rac1 (upper panels) and GFP and GFP-fused Dock5-DHR2 in extracts of 293T cells treated for 1 hour with the indicated concentrations of C21 in the presence of 1% DMSO. […] (FIG. 5F) Number of OCs (OC) after a 24-hour incubation with the indicated concentrations of C21, expressed as a % of DMSO control (0 μM C21). […] Well image was reconstituted and resorbed areas were measured using MetaMorph 7.0 software (Molecular Devices). […] After 2 days, CTx concentrations were measured using Crosslap (IDS Nordic Bioscience). […]

osteoclasts (OCs) [2] = test: Resorption of calcium-phosphate matrices by OCs; type: cell-based, mouse; details: 25 μM C21 (not shown)
Protocol: BMMs were isolated from long bones of 4- to 8-week-old animals as described (16) and OCs obtained by culturing BMMs with RANKL (100 ng/ml) and M-CSF (10 ng/ml) (Peprotech) for 5 days. RAW264.7 cells were grown for 5 days with RANKL (50 ng/ml) to obtain OCs. For resorption, OCs were differentiated in multiwell chambers or on coverslips coated with calcium phosphate (Osteologic Biocoat, BD Bioscience) or in 96-well plates containing a bovine bone slice (IDS Nordic Bioscience). Mesenchymal stem cells (MSCs) were isolated from mouse bone marrow and grown as described (18).
OCs in multiwell Osteologic Biocoat were fixed at day 7 of differentiation and calciumphosphate was stained with von Kossa as described (BRAZIER et al, 2009, see above). The entire well surface was imaged using a Zeiss AxioimagerZ1 microscope. Well image was reconstituted and resorbed areas were measured using MetaMorph 7.0 software (Molecular Devices). For bone resorption assays, OCs were derived from BMMs in 96-well plates containing bovine bone slices. At day 5 of differentiation, medium was changed with fresh medium. After 2 days, CTx concentrations were measured using Crosslap (IDS Nordic Bioscience). […]

Structure (SMILES): O=S(=O)(Nc1cc(Cl)cc(Cl)c1)c1ccccc1 [C21, N-(3,5-dichlorophenyl)benzenesulfonamide]
- Bone resorption, CTx concentration in the culture medium of OCs (osteoclasts (OCs) [1]; 25 μM C21, OCs on bone): efficiently inhibits
- Bone resorption by OCs in vitro, CTx production per OC, dose response (osteoclasts (OCs) [1]; dose response experiment): efficiently inhibits bone resorption
- Resorption of calcium-phosphate matrices (osteoclasts (OCs) [2]): efficiently inhibits
